Experimental data taken from patent publication US10251889B2, “Substituted pyrazolo[1,5-a]pyrimidine compounds as Trk kinase inhibitors” (Array BioPharma, Inc., priority 2009, dated 2019).
Structures can show the parent of a compound that is named as a salt. Where two headings read alike, the source gives them in different places.

Biological target: Jak2 (human Jak2 kinase domain, amino acids 808-1132) (Homo sapiens (Human), UniProt O60674)
Assay: Jak2 inhibition assay (Omnia kinase assay)
Assay type: biochemical
Experimental: The assays described in Examples C, D, E and F for the determination of JAK1, JAK2, JAK3 and Tyk2 kinase activity, respectively, utilized the Omnia® Kinase fluorescence peptide substrate-based technology (Invitrogen). […] The reactions were therefore read at excitation 360 nm and emission was measured at 485 nm every 50 seconds for 45 minutes using a PerkinElmer EnVision Multilabel Plate Reader.
The final buffer conditions for each of the JAK1, JAK2, JAK3 and Tyk2 assays were as follows: 25 mM HEPES, pH 7.4, 10 mM MgCl2, 0.01% Triton X-100 and 1 mM DTT.
Two-μL aliquots of these were transferred to a fresh plate for a ten-fold intermediate dilution with assay buffer. Five-μL aliquots of the diluted compounds were then transferred to 20-μL of assay mixtures described in Examples C, D, E and F for a final concentration of DMSO of 2%. […] For each plate, percent of control (POC) values were calculated for each well according to the following equation:
where Xmax=Average Uninhibited Controls • Xmin=Average Background IC50's were estimated from the POC's using a standard 4-parameter logistic model:
where A=Minimum Y (Bottom Asymptote) • B=Maximum Y (Top Asymptote) • C=EC50 • D=Slope Factor • X=Compound Concentration (nM) • Y=POC
The IC50 is defined as the concentration of inhibitor at which the POC equals 50 for the fitted curve.
Compounds of Formula I were screened for their ability to inhibit Jak2 using the general enzyme inhibition assay method, in which the assay mixture contained 500 μM ATP, 10 μM Omnia® Y7 peptide (Catalog # IVGN KNZ3071C, Invitrogen Corporation, Carlsbad, Calif.) and 4 nM Jak2 in a total volume of 20 μL. Human Jak2 kinase domain comprising amino acids 808-1132 was purchased from Invitrogen Corporation, Carlsbad, Calif. (catalog # IVGN PV4210).

[1] = read-out: Jak2 Enzyme (% inhibition at 1000 nM), Table 1, 1000 nM test compound

Sequence of Jak2 (human Jak2 kinase domain, amino acids 808-1132) (O60674 808-1132): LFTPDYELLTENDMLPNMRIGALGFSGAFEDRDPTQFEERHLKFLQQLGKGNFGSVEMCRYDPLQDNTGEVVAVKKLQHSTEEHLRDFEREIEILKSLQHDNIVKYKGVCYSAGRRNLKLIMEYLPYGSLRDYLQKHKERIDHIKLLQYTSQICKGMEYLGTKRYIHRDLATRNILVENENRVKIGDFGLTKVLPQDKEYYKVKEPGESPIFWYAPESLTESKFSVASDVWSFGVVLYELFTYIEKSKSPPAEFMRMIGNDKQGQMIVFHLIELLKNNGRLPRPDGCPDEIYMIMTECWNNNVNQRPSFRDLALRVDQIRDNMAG

| inhibition at 1 µM [1] [%] | Compound | inhibition at 1 µM (read-out: Jak2 Enzyme (% inhibition at 1000 nM)) [%] |
| --- | --- | --- |
| 11 | COCCNC(=O)c1cnn2ccc(N3CCC[C@@H]3c3cc(F)ccc3F)nc12 [Example 172, 5-((R)-2-(2,5-difluorophenyl)pyrrolidin-1-yl)-N-(2-methoxyethyl)pyrazolo[1,5-a]pyrimidine-3-carboxamide] | – |
| 18.2 | CC(C)(C#N)NC(=O)c1cnn2ccc(N3CCC[C@@H]3c3cc(F)ccc3F)nc12 [Example 38, (R)—N-(2-cyanopropan-2-yl)-5-(2-(2,5-difluorophenyl)pyrrolidin-1-yl)pyrazolo[1,5-a]pyrimidine-3-carboxamide] | – |
| 18.7 | O=C(N[C@H]1CC[C@H](O)C1)c1cnn2ccc(N3CCC[C@@H]3c3cncc(F)c3)nc12 [Example 105, 5-((R)-2-(5-fluoropyridin-3-yl)pyrrolidin-1-yl)-N-((1S,3S)-3-hydroxycyclopentyl)pyrazolo[1,5-a]pyrimidine-3-carboxamide] | – |
| 11.5 | O=C(NCCN1CCNC1=O)c1cnn2ccc(N3CCC[C@@H]3c3cc(F)ccc3F)nc12 [Example 24, (R)-5-(2-(2,5-difluorophenyl)pyrrolidin-1-yl)-N-(2-(2-oxoimidazolidin-1-yl)ethyl) pyrazole[1,5-a]pyrimidine-3-carboxamide] | – |
| 4.8 | COCCNC(=O)c1cnn2ccc(N3CCC[C@@H]3c3cc(F)cnc3C)nc12 [Example 191, (R)-5-(2-(5-fluoro-2-methylpyridin-3-yl)pyrrolidin-1-yl)-N-(2-methoxyethyl)pyrazolo[1,5-a]pyrimidine-3-carboxamide] | – |
| -0.3 | C[C@H](O)CNC(=O)c1cnn2ccc(N3CCC[C@@H]3c3cncc(F)c3)nc12 [Example 109, 5-((R)-2-(5-fluoropyridin-3-yl)pyrrolidin-1-yl)-N-((S)-2-hydroxypropyl)pyrazolo[1,5-a]pyrimidine-3-carboxamide] | – |
| 33.3 | COc1ncc(F)cc1[C@H]1CCCN1c1ccn2ncc(C(=O)NCCO)c2n1 [Example 155, (R)-5-(2-(5-fluoro-2-methoxypyridin-3-yl)pyrrolidin-1-yl)-N-(2-hydroxyethyl)pyrazolo[1,5-a]pyrimidine-3-carboxamide] | – |
| 30.4 | N#CCNC(=O)c1cnn2ccc(N3CCC[C@@H]3c3cc(F)ccc3F)nc12 [Example 39, (R)—N-(cyanomethyl)-5-(2-(2,5-difluorophenyl)pyrrolidin-1-yl)pyrazolo[1,5-a]pyrimidine-3-carboxamide] | – |
| 15.5 | Cn1cc(F)cc([C@H]2CCCN2c2ccn3ncc(C(=O)Nc4ccc(F)cn4)c3n2)c1=O [Example 239, (R)-5-(2-(5-fluoro-1-methyl-2-oxo-1,2-dihydropyridin-3-yl)pyrrolidin-1-yl)-N-(5-fluoropyridin-2-yl)pyrazolo[1,5-a]pyrimidine-3-carboxamide] | – |
| 9.8 | Cn1cc(CNC(=O)c2cnn3ccc(N4CCC[C@@H]4c4cc(F)ccc4F)nc23)cn1 [Example 22, (R)-5-(2-(2,5-difluorophenyl)pyrrolidin-1-yl)-N-((1-methyl-1H-pyrazol-4-yl)methyl)pyrazolo[1,5-a]pyrimidine-3-carboxamide] | – |
| 14.4 | COc1ncc(F)cc1[C@H]1CCCN1c1ccn2ncc(C(=O)NCC(C)(C)O)c2n1 [Example 158, (R)-5-(2-(5-fluoro-2-methoxypyridin-3-yl)pyrrolidin-1-yl)-N-(2-hydroxy-2-methylpropyl)pyrazolo[1,5-a]pyrimidine-3-carboxamide] | – |
| 15.2 | C[C@H](NC(=O)c1cnn2ccc(N3[C@@H](c4cncc(F)c4)CC[C@@]3(C)CO)nc12)C(F)(F)F [Example 220, 5-((2S,5R)-5-(5-fluoropyridin-3-yl)-2-(hydroxymethyl)-2-methylpyrrolidin-1-yl)-N—((S)-1,1,1-trifluoropropan-2-yl)pyrazolo[1,5-a]pyrimidine-3-carboxamide] | – |
| -0.8 | Cc1ncc(F)cc1[C@H]1CCCN1c1ccn2ncc(C(=O)NC(C)(C)C)c2n1 [Example 183, (R)-N-tert-butyl-5-(2-(5-fluoro-2-methylpyridin-3-yl)pyrrolidin-1-yl)pyrazolo[1,5-a]pyrimidine-3-carboxamide] | – |
| – | O=C(N[C@@H]1CCNC[C@@H]1F)c1cnn2ccc(N3CCC[C@@H]3c3cc(F)ccc3F)nc12 [Example 61, 5-((R)-2-(2,5-difluorophenyl)pyrrolidin-1-yl)-N-((3S,4R)-3-fluoropiperidin-4-yl)pyrazolo[1,5-a]pyrimidine-3-carboxamide Hydrochloride] | 54.4 |
| 50.7 | COc1ncc(F)cc1[C@H]1CCCN1c1ccn2ncc(C(=O)NC(C)(C)C)c2n1 [Example 80, (R)—N-tert-butyl-5-(2-(5-fluoro-2-methoxypyridin-3-yl)pyrrolidin-1-yl)pyrazolo[1,5-a]pyrimidine-3-carboxamide] | – |
| 73.1 | C[C@@H](NC(=O)c1cnn2ccc(N3CCC[C@@H]3c3cc(F)cn(C)c3=O)nc12)C1CC1 [Example 235, N-((R)-1-cyclopropylethyl)-5-((R)-2-(5-fluoro-1-methyl-2-oxo-1,2-dihydropyridin-3-yl)pyrrolidin-1-yl)pyrazolo[1,5-a]pyrimidine-3-carboxamide] | – |
| 54.8 | COc1ncc(F)cc1[C@H]1CCCN1c1ccn2ncc(C(=O)NC3CC3)c2n1 [Example 79, (R)—N-cyclopropyl-5-(2-(5-fluoro-2-methoxypyridin-3-yl)pyrrolidin-1-yl)pyrazolo[1,5-a]pyrimidine-3-carboxamide] | – |
| 2.7 | O=C(NC1(C(=O)O)CC1)c1cnn2ccc(N3CCC[C@@H]3c3cc(F)ccc3F)nc12 [Example 84, (R)-1-(5-(2-(2,5-difluorophenyl)pyrrolidin-1-yl)pyrazolo[1,5-a]pyrimidine-3-carboxamido)cyclopropanecarboxylic Acid] | – |
| 0.9 | COc1ncc(F)cc1[C@H]1CCCN1c1ccn2ncc(C(=O)N3CC(C)(O)C3)c2n1 [Example 147, (R)-(5-(2-(5-fluoro-2-methoxypyridin-3-yl)pyrrolidin-1-yl)pyrazolo[1,5-a]pyrimidin-3-yl)(3-hydroxy-3-methylazetidin-1-yl)methanone] | – |
| 2.3 | O=C(NC1CCC[C@@H]1O)c1cnn2ccc(N3CCCC3c3cncc(F)c3)nc12 (stereo partly drawn) [Example 120, 5-((R)-2-(5-fluoropyridin-3-yl)pyrrolidin-1-yl)-N-((trans)-2-hydroxycyclopentyl)pyrazolo[1,5-a]pyrimidine-3-carboxamide] | – |
| 3.7 | CC(C)(CO)NC(=O)c1cnn2ccc(N3CCC[C@@H]3c3cncc(F)c3)nc12 [Example 132] | – |
| 5.3 | Cn1cc(F)cc([C@H]2CCCN2c2ccn3ncc(C(=O)N[C@@H]4CCCC[C@H]4O)c3n2)c1=O [Example 234, 5-((R)-2-(5-fluoro-1-methyl-2-oxo-1,2-dihydropyridin-3-yl)pyrrolidin-1-yl)-N-((1R,2R)-2-hydroxycyclohexyl)pyrazolo[1,5-a]pyrimidine-3-carboxamide] | – |
| 90 | O=C(N[C@H]1CC[C@H](O)CC1)c1cnn2ccc(N3CCC[C@@H]3c3cc(F)ccc3F)nc12 [Example 7, 5-((R)-2-(2,5-difluorophenyl)pyrrolidin-1-yl)-N-((trans)-4-hydroxycyclohexyl)pyrazolo[1,5-a]pyrimidine-3-carboxamide] | – |
| 24.6 | CNC(=O)c1cnn2ccc(N3C[C@@H](O)C[C@@H]3c3cccc(F)c3)nc12 [Example 218, 5-((2R,4S)-2-(3-fluorophenyl)-4-hydroxypyrrolidin-1-yl)-N-methylpyrazolo[1,5-a]pyrimidine-3-carboxamide] | – |
| 24.1 | COc1ccc(F)cc1[C@H]1CCCN1c1ccn2ncc(C(=O)NC[C@H](O)CO)c2n1 [Example 55, N—((S)-2,3-dihydroxypropyl)-5-((R)-2-(5-fluoro-2-methoxyphenyl)pyrrolidin-1-yl)pyrazolo[1,5-a]pyrimidine-3-carboxamide] | – |
| 4.6 | CC(C)(CN1CCOCC1)NC(=O)c1cnn2ccc(N3CCC[C@@H]3c3cc(F)ccc3F)nc12 [Example 9, (R)-5-(2-(2,5-difluorophenyl)pyrrolidin-1-yl)-N-(2-methyl-1-morpholinopropan-2-yl)pyrazolo[1,5-a]pyrimidine-3-carboxamide] | – |
| 10.1 | Cc1cccnc1NC(=O)c1cnn2ccc(N3CCC[C@@H]3c3cc(F)ccc3F)nc12 [Example 3, (R)-5-(2-(2,5-difluorophenyl)pyrrolidin-1-yl)-N-(3-methylpyridin-2-yl)pyrazolo[1,5-a]pyrimidine-3-carboxamide] | – |
| 19.4 | O=C(NCCc1c[nH]cn1)c1cnn2ccc(N3CCC[C@@H]3c3cc(F)ccc3F)nc12 [Example 25, (R)—N-(2-(1H-imidazol-4-yl)ethyl)-5-(2-(2,5-difluorophenyl)pyrrolidin-1-yl)pyrazole [1,5-a]pyrimidine-3-carboxamide] | – |
